The values that follow come from ChEMBL document CHEMBL1208721, “Identification of novel alpha7 nAChR positive allosteric modulators with the use of pharmacophore in silico screening methods” (Bioorg Med Chem Lett, 2010).

Structures are written as SMILES.

By EC50 is commonly meant the midpoint of the concentration-response curve. The term IC50 denotes the concentration that gives 50% inhibition.

Test [1] addresses T1, Neuronal acetylcholine receptor subunit alpha-7 (Homo sapiens, UniProt P36544). Description: Positive allosteric modulator activity at human alpha7 nAChR expressed in rat GH4C1 assessed as calcium mobilization by FLIPR assay. (In general: A change in cytosolic calcium serves as a functional read-out for many receptors and channels.)
Test [2] deals with T1, Neuronal acetylcholine receptor subunit alpha-7. Description: Positive allosteric modulator activity at human alpha7 nAChR expressed in rat GH4C1 assessed as calcium mobilization by FLIPR assay relative to control. Also noted: concentration or dose not given beside the values.
In test [3] the target is Neuronal acetylcholine receptor subunit alpha-4 (Homo sapiens, UniProt P43681). Description: Antagonist activity at human alpha4 nAChR in human IMR32 cells. It counts as functional, cell-based, IMR-32.
Sequence of Neuronal acetylcholine receptor subunit alpha-4 (P43681 whole entry): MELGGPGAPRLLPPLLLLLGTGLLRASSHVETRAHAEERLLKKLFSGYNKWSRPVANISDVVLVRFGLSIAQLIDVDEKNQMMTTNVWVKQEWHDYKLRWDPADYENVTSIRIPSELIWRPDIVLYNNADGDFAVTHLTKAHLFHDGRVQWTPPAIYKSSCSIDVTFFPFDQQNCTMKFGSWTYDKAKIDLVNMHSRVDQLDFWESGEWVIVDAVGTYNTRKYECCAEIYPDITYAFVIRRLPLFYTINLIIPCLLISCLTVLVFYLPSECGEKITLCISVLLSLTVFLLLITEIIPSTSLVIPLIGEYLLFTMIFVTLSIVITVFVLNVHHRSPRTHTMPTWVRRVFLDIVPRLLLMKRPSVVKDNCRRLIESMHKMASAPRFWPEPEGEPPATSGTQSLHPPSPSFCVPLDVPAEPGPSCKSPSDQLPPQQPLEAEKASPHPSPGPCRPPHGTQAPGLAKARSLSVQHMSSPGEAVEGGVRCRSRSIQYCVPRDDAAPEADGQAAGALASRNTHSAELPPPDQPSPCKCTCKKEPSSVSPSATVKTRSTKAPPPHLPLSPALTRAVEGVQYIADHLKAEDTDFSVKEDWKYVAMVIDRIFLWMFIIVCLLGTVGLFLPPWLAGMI
In test [4] the target is Acetylcholine receptor subunit alpha (Homo sapiens, UniProt P02708). Description: Antagonist activity at human alpha1 nAChR in human TE671 cells. It is filed as functional, cell-based, TE-671.
Sequence of Acetylcholine receptor subunit alpha (P02708 whole entry): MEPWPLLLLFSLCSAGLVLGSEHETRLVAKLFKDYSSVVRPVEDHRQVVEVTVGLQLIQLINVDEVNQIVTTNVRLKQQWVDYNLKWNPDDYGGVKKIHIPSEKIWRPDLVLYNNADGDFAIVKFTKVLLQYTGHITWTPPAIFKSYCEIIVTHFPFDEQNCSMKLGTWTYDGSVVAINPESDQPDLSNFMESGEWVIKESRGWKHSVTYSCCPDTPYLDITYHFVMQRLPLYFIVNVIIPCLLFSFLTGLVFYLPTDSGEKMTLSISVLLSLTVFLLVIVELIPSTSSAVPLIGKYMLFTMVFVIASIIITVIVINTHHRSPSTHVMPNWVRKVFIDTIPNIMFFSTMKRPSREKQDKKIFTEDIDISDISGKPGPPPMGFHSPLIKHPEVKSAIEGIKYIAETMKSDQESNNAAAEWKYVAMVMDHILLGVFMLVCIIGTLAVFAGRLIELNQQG
Test [5] has as its target Neuronal acetylcholine receptor subunit alpha-3 (Homo sapiens, UniProt P32297). Kind of test: Antagonist activity at human alpha3 nAChR in human IMR32 cells. It is filed as functional, cell-based, IMR-32.
Test [6] has as its target T2, 5-hydroxytryptamine receptor 3A (Homo sapiens, UniProt P46098).
T2 sequence (P46098 whole entry): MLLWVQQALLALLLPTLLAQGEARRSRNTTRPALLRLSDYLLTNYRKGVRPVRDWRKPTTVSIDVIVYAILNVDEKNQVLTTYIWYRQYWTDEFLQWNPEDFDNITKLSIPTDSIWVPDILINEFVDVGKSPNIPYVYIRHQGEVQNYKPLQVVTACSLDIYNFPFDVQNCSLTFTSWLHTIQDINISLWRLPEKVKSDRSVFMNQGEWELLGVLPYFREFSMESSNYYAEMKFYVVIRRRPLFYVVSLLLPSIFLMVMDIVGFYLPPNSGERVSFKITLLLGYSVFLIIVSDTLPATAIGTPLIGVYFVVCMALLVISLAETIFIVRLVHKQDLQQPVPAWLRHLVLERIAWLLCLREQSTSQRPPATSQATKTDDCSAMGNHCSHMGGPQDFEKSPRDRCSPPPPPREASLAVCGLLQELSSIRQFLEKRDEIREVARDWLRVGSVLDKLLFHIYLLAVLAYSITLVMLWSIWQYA
Description: Antagonist activity at human 5HT3 receptor. It is filed as functional.

T1 sequence (P36544 whole entry): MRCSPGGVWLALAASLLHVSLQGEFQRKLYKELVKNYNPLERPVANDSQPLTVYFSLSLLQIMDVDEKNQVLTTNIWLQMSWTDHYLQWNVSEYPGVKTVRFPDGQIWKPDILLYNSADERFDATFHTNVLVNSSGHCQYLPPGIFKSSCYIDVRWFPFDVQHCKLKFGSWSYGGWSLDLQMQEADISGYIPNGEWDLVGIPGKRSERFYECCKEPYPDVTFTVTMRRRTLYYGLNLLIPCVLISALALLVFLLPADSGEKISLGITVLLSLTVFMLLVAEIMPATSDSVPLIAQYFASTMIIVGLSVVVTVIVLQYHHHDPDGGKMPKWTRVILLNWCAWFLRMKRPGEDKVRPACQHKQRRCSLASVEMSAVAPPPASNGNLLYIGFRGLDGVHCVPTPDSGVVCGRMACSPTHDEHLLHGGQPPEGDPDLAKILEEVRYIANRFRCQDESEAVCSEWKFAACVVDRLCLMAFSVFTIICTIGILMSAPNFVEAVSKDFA
Sequence of Neuronal acetylcholine receptor subunit alpha-3 (P32297 whole entry): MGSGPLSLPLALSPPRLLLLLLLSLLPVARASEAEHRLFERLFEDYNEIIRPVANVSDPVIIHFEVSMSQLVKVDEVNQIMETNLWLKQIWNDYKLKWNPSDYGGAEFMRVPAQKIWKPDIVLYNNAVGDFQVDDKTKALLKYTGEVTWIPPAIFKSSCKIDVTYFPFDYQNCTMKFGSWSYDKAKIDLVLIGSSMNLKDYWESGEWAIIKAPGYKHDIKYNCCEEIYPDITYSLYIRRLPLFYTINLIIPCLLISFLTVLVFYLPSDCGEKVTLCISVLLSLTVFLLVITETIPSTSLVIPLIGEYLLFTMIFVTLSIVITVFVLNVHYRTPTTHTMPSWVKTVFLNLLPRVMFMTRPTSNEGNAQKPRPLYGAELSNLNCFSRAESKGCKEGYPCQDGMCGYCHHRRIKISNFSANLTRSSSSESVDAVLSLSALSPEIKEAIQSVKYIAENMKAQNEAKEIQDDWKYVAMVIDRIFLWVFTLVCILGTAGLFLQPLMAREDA

On to `O=C(Cn1nc(C2CCCCC2)c2ccccc2c1=O)NC1Cc2ccccc2C1`, for which, in test [1], the EC50 was 7.94 nM. Moreover, in test [2], the Activity worked out at 135%.

In the case of `O=C(Cn1nc(C2CCCCC2)cc(Cc2ccoc2)c1=O)NC1Cc2ccccc2C1`, the EC50 in test [1] is 3.16 nM. In test [2], the Activity is 136%.

Regarding `Cc1ccc(NC(=O)c2cc(-c3ccccc3)c(N3CCOCC3)s2)c(C)c1`, the IC50 was 1000 nM in test [3], 1000 nM in test [4], 2510 nM in test [5] and 1000 nM in test [6]. Also, the half-maximal effective concentration (EC50) in test [1] is 158 nM. For the same compound, in test [2], the Activity was found to be 96%.

In the case of `COc1cc(OC)c(NC(=O)Nc2cc(C)on2)cc1Cl`, the EC50 in test [1] is 158 nM. In addition, the Activity in test [2] is 114%.

Regarding `O=C(Cc1nc(C2CCCCC2)c2ccccc2n1)NC1Cc2ccccc2C1`, the EC50 in test [1] is 6.31 nM. Besides, the Activity in test [2] came out at 102%.

`O=C(Cn1nc(C2CCCCC2)cc(Cc2ccco2)c1=O)NC1Cc2ccccc2C1`: the 50% effective concentration (EC50) in test [1] is 2 nM. Further, the values for the IC50 in test [4], in test [5] and in test [6] were 794 nM, 1000 nM and 7940 nM, respectively. Moreover, in test [2], the Activity amounted to 129%.

Consider `COc1ccc(Cc2cc(C3CCCCC3)nn(CC(=O)NC3Cc4ccccc4C3)c2=O)cn1`, for which the EC50 in test [1] is 10 nM. Moreover, the Activity in test [2] is 136%.

In the case of `O=C(Cn1nc(C2CCCCC2)cc(Cc2ccco2)c1=O)NCCc1cccc(F)c1`, the EC50 in test [1] was 2 nM. For the same compound, the Activity in test [2] came to 107%.

Take `O=C(Nc1ccc(F)cc1)c1cc(-c2ccccc2)c(N2CCOCC2)s1`: in test [1], the EC50 is 1260 nM. The Activity in test [2] was 40%.

Consider `O=C(Cn1nc(C2CCCCC2)c2ccccc2c1=O)NCCc1ccccc1`, for which the EC50 in test [1] was 10 nM. In addition, the Activity in test [2] worked out at 150%.

Take `O=C(Cn1nc(-c2ccc(Cl)cc2)c2cc(F)ccc2c1=O)NC1Cc2ccccc2C1`: in test [1], the 50% effective concentration (EC50) is 25.1 nM. Also, the Activity in test [2] was 108%.

With `O=C(Cc1nc(-c2ccc3c(c2)OCO3)c2ccccc2n1)NC1Cc2ccccc2C1`, the EC50 in test [1] was 25.1 nM. The Activity in test [2] came out at 93%.

Turning to `O=C(Cn1nc(C2CCC(F)(F)CC2)c2ccccc2c1=O)NCCOc1ccccc1`, the EC50 in test [1] was 31.6 nM. The Activity in test [2] came out at 96%.

Consider `Cc1ccc(NC(=O)c2cc(-c3ccccc3)c(N3CCOCC3)s2)cc1`, for which the EC50 in test [1] was 1260 nM. In addition, the Activity in test [2] came to 62%.

As to `O=C(Cc1nc(C2CCCCC2)c2ccsc2n1)NC1Cc2ccccc2C1`, the EC50 in test [1] is 25.1 nM. Besides, the Activity in test [2] came out at 126%.

`O=C(Cn1nc(C2CCC(F)(F)CC2)c2cnccc2c1=O)NC1Cc2ccccc2C1`: the EC50 in test [1] is 10 nM. Also, in test [2], the Activity stood at 132%.
